Assay results reported in publication PMC8662641, “Site-Specific Labeling of Endogenous Proteins Using CoLDR Chemistry” (Journal of the American Chemical Society, 2021).

How the values were obtained:
BTK = BTK (Homo sapiens, UniProt Q06187); experiment: In-gel fluorescence labeling profile in Mino cells; conditions: 2 h incubation, in-gel fluorescence
Procedure: Lysates were then diluted to 2 mg/mL in PBS. […] The samples were incubated at 25 °C for 2 h. A 20 μL amount of 4× LDS sample buffer (NuPAGE, Thermo Fisher Scientific, NP0007) was added followed by a 10 min incubation at 70 °C.
The 1× chloroform, 4× methanol, and 3× water were added to the samples and vortexed thoroughly. The samples were spun down for 10 min at 4 °C. The top layer was aspirated, and the pellet was resuspended in 4× methanol. The sample was vortexed and spun down again for 10 min at 4 °C, the solution was removed, and the pellet was dried for 2 min. The pellet was dissolved in 42 μL of PBS followed by 14 μL of 4× sample buffer. The samples were then loaded on a 4–20% Bis-Tris gel (SurePAGE, GeneScript) and imaged using a Typhoon FLA 9500 scanner.

BTK kinase domain = BTK kinase domain (Homo sapiens, UniProt Q06187); experiment: Time-dependent labeling of BTK, kinact and Ki of 1b; assay type: binding; design: BTK kinase domain was expressed and purified as previously reported; made in house
Procedure: To assess the kinetic parameters of labeling, we performed a time-dependent incubation experiment of BTK (200 nM) with various concentrations of 1b (300–2000 nM, 20 mM Tris, pH 8, 14 °C; […]. page 9:
Figure S5. Determination of kinact and Ki parameters of CoLDR probe 1b. A. Depletion of unlabelled BTK (200 nM) […]
reaction was monitored by LC-MS. B. The rate constants as extrapolated from A. as a function of the concentration […]
(1 picture or pasted object on this page, not shown here)
Analysis was done using MaxQuant 1.6.3.4. The sequence of BTK was used for the analysis. The digestion enzyme was set to Trypsin with a maximum number of missed cleavages of 0.
Carbamidomethyl and the modification by the molecule were included as variable modifications on cysteine. The “Re-quantify” option was enabled. Contaminants were included. […] The triplicate measured for each compound (or for DMSO-treated protein) was analyzed separately.
Following MaxQuant analysis, only fully cleaved peptides were quantified and cysteine-containing peptides that were not modified by either iodoacetamide or compound were ignored.
The intensity for each peptide was calculated as the average of the three triplicates. […]
from the stock solution. […] The labeling percentage for a compound was determined as the labeling of a specific compound (alone or together with other compounds) divided by the overall detected protein species. […]

primary mouse B cells = experiment: B-cell response experiment (CD86 after anti-IgM); assay type: cell-based; conditions: 24 h treatment, 1–1000 nM
Procedure: Splenic cells from C57BL/6 mice were isolated by forcing spleen tissue through the mesh into PBS containing 2% fetal calf serum and 1 mM EDTA, and red blood cells were depleted by lysis buffer. […] Following a 24 h incubation, cells were stimulated with anti-IgM overnight (5 μg/mL, Sigma-Aldrich). […] Single-cell suspensions were analyzed by a flow cytometer (CytoFlex, Beckman Coulter).

BTK kinase domain, sequence (Q06187 402-655 limits assumed): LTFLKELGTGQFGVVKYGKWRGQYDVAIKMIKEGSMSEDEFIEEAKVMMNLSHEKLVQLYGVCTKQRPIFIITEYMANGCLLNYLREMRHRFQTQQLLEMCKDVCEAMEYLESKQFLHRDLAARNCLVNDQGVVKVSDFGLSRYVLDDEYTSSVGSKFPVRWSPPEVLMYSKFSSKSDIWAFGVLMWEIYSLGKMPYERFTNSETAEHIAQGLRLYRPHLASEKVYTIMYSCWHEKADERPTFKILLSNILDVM
BTK, sequence (Q06187 whole entry, the tested form may be a part): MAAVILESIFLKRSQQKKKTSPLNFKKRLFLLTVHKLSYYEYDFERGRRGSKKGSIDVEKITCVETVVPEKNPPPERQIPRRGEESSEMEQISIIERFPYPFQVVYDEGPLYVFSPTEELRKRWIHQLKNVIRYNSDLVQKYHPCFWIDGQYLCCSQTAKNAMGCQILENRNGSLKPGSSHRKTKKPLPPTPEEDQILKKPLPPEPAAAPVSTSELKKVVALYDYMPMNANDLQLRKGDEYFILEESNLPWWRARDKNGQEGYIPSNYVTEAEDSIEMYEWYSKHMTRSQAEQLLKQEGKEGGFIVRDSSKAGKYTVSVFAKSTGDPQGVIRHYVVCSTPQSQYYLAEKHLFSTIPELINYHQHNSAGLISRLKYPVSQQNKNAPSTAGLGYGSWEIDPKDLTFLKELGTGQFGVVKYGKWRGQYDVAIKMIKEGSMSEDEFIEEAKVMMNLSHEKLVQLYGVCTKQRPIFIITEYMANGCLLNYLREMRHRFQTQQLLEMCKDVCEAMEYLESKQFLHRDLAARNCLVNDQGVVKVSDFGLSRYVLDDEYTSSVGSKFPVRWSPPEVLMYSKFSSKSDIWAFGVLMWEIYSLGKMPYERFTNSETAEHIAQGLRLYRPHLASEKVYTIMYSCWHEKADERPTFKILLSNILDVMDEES

Structure (SMILES): C#CCCNC(=O)C(=C)CN1CCC[C@@H](n2nc(-c3ccc(Oc4ccccc4)cc3)c3c(N)ncnc32)C1 [1b]
- labeling of BTK in live Mino cells (BTK): robust labeling even at a concentration of 10 nM
- reversible binding component weaker than ibrutinib (BTK kinase domain; 1b Ki compared with reported ibrutinib Ki): about 5 fold
- kinact (BTK kinase domain; BTK 200 nM, 1b 300–2000 nM, 20 mM Tris, pH 8, 14 °C): 0.0278 s⁻¹
- B cell activation (CD86 expression) after anti-IgM (primary mouse B cells): did not inhibit the activation of B cells
